Data as given in US8637474B2, “Receptor modulators exhibiting neuroprotective and memory enhancing activities” (The Hong Kong University of Science and Technology, priority 2007, dated 2014).
“Also recorded” adds a separate entry of the source.

Key:
MC3 = MC3 (Homo sapiens, UniProt P41968); experiment: Radioligand competition binding assay, MC3; settings: MC3, DA001 10 μM, duplicate; read-out: % inhibition of control specific binding
Procedure: (§1) DA001 was evaluated against 109 receptor binding assays and 17 enzyme assays, comprising of selective, central and peripheral therapeutically-relevant targets. Radioligand competition assays were conducted whereby DA001 was tested at one concentration (10 μM) in duplicate. […] It could compete with the radioligand [^125I-NDP-alpha-melanocyte-stimulating hormone (α-MSH)] binding for MC1 and MC4 but not MC3 and MC5 nor the related family, the melanin concentrating hormone receptors (MCH1 and MCH2).

[1] = test system: rat primary hippocampal neurons; experiment: NMDA survival assay (LDH release), primary hippocampal neurons; assay type: cell-based; settings: DA001 30 μM, NMDA 20 μM
Procedure: FIG. 6. DA001 protects against NMDA excitotoxicity in rat primary hippocampal neurons. Embryonic rat hippocampal neurons (11 DIV) were treated with NMDA (20 μM) in the absence or presence of DA001 (μM) or memantine (μM). LDH release in the medium was measured after overnight incubation and cell cytotoxicity was calculated in percentage when compared to solvent control (DMSO).
DA001 (at 30 μM) reduced cell death by ˜80%.
Primary cortical and hippocampal neurons were prepared from embryonic day 18 (E18) Sprague-Dawley rats. Neurons were plated on 24-well pate (TPP, Corning) at a density of 2×10^5 cells per well using Neurobasal medium (Invitrogen) supplemented with 2% B27 (Invitrogen). Neurons at 11-12 days in vitro (12DIV) were subjected to drug treatment. Neurons were pretreated with the test compound for 2 hours prior to NMDA treatment. 0.1 μM(+)-MK-801 Hydrogen Maleate (Sigma) was added as a positive control. Briefly, the neurons were rinsed with Locke's solution (5 mM potassium chloride, 128 mM sodium chloride, 2.7 mM calcium chloride, 1 mM di-sodium hydrogen orthophosphate, 5 mM HEPES and 10 mM glucose in Milli-Q water) without Mg^2+, and incubated with addition of glycine (10 μM) for 15 minutes. […] The cell death was assayed and quantified using the lactate dehydrogenase release assay (Roche) after 24 hours.

BDNF expression = experiment: Real-time quantitative PCR, BDNF expression following NMDA treatment; assay type: cell-based, rat
Procedure: FIG. 20 illustrates that DA001 induces BDNF and NT-3 expression but not Bcl-2 or c-fos following NMDA treatment.
Cortical neurons were pre-treated with DA001 prior to being subjected to NMDA insults, after which total RNA was extracted at different time intervals after treatment. There was a 5-fold increase in BDNF expression after a 6 hour incubation period. BDNF expression remained ˜3-4 fold over the control (DMSO) 12-24 hours after treatment with DA001.
Total RNA was extracted followed by cDNA synthesis. Gene expression was normalized against home gene, hypoxanthine phosphoribosyltransferase 1 (HPRT1) and glyceraldehyde 3-phosphate dehydrogenase (GAPDH). Relative change in gene expression induced by DA001+H2O and DA001+NMDA was compared with the controls, DMSO+H2O and DMSO+NMDA, respectively.
Cortical neurons were pre-treated with DA001 after which the cells were subjected to NMDA insult. The expression of BDNF was measured at three different time intervals and compared to that of NT-3, Bcl-2 and c-fos. DA001 induced BDNF and NT-3 expression but not bcl-2 or c-fos under the same conditions. […]
Cortical neurons of 11DIV-12DIV were pre-incubated with DA001 or DMSO for 24hours. […] Real-time Quantitative PCR was performed using Power SYBR Green PCR Master Mix (Applied Biosystems) on the M×3000P Real-Time PCR System (Stratagene). […]

[2] = biological target: melanin concentrating hormone receptor MCH1 (Homo sapiens, UniProt Q99705); experiment: Radioligand competition binding assay, MCH1; settings: MCH1, DA001 10 μM, duplicate; read-out: % inhibition of control specific binding
Procedure: as §1

[3] = biological target: melanocortin-4 (MC4) receptor (Homo sapiens, UniProt P32245); experiment: Radioligand competition binding assay, MC4
Procedure: as §1
(§2) To determine the IC50 for DA001 to inhibit α-MSH binding on MC1 and MC4 receptor, the compound was further characterized by a dose-dependent study. DA001 was evaluated with 8 concentrations on MC1 and MC4 receptor binding assays.
(§3) The specific ligand binding to the receptors is defined as the difference between the total binding and the nonspecific binding determined in the presence of an excess of unlabelled ligand. The results are expressed as a percent of control specific binding [(measured specific binding/control specific binding)×100] and as a percent inhibition of control specific binding {100−[(measured specific binding/control specific binding)×100]} obtained in the presence of DA001. The IC50 values (concentration causing a half-maximal inhibition of control specific binding) and Hill coefficients (nH) were determined by non-linear regression analysis of the competition curves generated with mean replicate values using Hill equation curve fitting (Y=D+[(A−D)/(1+(C/C50)nH)], where Y=specific binding, D=minimum specific binding, A=maximum specific binding, C=compound concentration, C50=IC50, and nH=slope factor). This analysis was performed using a software developed at Cerep (Hill software) and validated by comparison with data generated by the commercial software SigmaPlot® 4.0 for Windows® (© 1997 by SPSS Inc.).

MC5 = MC5 (Homo sapiens, UniProt P33032); experiment: Radioligand competition binding assay, MC5; settings: MC5, DA001 10 μM, duplicate; read-out: % inhibition of control specific binding
Procedure: as §1

[4] = biological target: melanocortin-1 (MC1) receptor (Homo sapiens, UniProt Q01726); experiment: Radioligand competition binding assay, MC1
Procedure: as §1, §2, §3

[5] = test system: rat primary cortical neurons; experiment: NMDA survival assay (LDH release), primary cortical neurons; assay type: cell-based; settings: NMDA 20 μM; for reduction of cell death compared to DA001: compounds in μg/ml, FIG. 13
Procedure: FIG. 5 DA001 protects against NMDA excitotoxicity in rat cortical neurons. Embryonic rat cortical neurons (11DIV) were treated with NMDA (20 μM) in the absence or presence of TCM samples (μg/ml) or memantine (μM). Memantine is a known NMDA antagonist. LDH release in the medium was measured after overnight incubation and cell cytotoxicity was calculated as a percentage when compared to the solvent control, DMSO.
FIG. 12. Derivatives of DA001 rescue the cortical neurons from NMDA excitotoxicity. Embryonic rat cortical neurons (11DIV) were treated with NMDA (20 μM) in the absence or presence of DA001 or its derivatives (10 or 30 μM); LDH release in the medium after overnight or 24 hours incubation was measured and cell death was calculated as a percentage in comparison to DMSO, the solvent control. Data are expressed as mean±s.e.m. *=P<0.05.
FIG. 13. DA002 and DA021, both derivatives of DA001, reduced NMDA-induced excitotoxicity. Embryonic rat cortical neurons (11DIV) were treated with NMDA (20 μM) in the absence or presence of DA002 or DA021 (μg/ml). LDH release in the medium after overnight incubation was measured and cell cytotoxicity was calculated as a percentage in comparison to DMSO, the solvent control.
DA001 (at 10 μg/ml) reduced cell death by more than 60% compared to the DMSO control. Compound A0178 and memantine were included as negative and positive controls, respectively.
Memantine is an FDA-approved NMDA antagonist used for clinical indications such as dementia in Alzheimer's disease. Dose-dependant assays were performed for each compound and based on the resulting dose response curve, the corresponding EC50 for each compound was determined.
NMDA survival assays were performed to measure the degree of protection provided to cortical neuronal cells when treated with the novel compounds (at 30 μM, except DA026 at 10 μM) prior to NMDA insult.
Compounds derived from DA001 were tested for their ability to inhibit NMDA-induced excitotoxicity. Primary rat cortical neurons were subjected to NMDA insults in the presence and absence of the novel derivatives.
Cortical neurons were pre-treated with DA001 and subsequently subjected to varying concentrations of NMDA. Survival assays were then conducted to determine the ability of DA001 to effectively protect neuronal cells from NMDA-induced excitotoxicity.
LDH release into the medium was then measured.
Primary cortical and hippocampal neurons were prepared from embryonic day 18 (E18) Sprague-Dawley rats. Neurons were plated on 24-well pate (TPP, Corning) at a density of 2×10^5 cells per well using Neurobasal medium (Invitrogen) supplemented with 2% B27 (Invitrogen). […] The cell death was assayed and quantified using the lactate dehydrogenase release assay (Roche) after 24 hours. […]

[6] = biological target: melanin concentrating hormone receptor MCH2 (Homo sapiens, UniProt Q969V1); experiment: Radioligand competition binding assay, MCH2; settings: MCH2, DA001 10 μM, duplicate; read-out: % inhibition of control specific binding
Procedure: as §1

primary cortical neurons = experiment: Cell toxicity test (LDH) on primary neurons; assay type: cell-based; settings: 24 hours, all concentrations, maximum dose 70 μM
Procedure: FIG. 8. […] Primary cortical neurons were treated with different concentrations of DA001 for 24 hours.
This was performed to study the effects of the invention on primary neurons. Cortical neurons isolated from embryonic day 18 Spraque-Dawley rats were cultured in Neurobasal medium supplemented with 2% B27 and penicillin/streptomycin solution (Invitrogen). Primary neurons of 7 days in culture (7 DIV) were treated with various concentrations of the invention in the absence of B27 for 24 hours. Lactate dehydrogenases (LDH) was released into the medium and measured and calculated as percentage compared to 1% Triton X-100.

melatonin (MT1) receptor = melatonin (MT1) receptor (Homo sapiens, UniProt P48039); experiment: Radioligand competition binding assay, MT1; settings: MT1, DA001 10 μM, duplicate; read-out: % inhibition of control specific binding
Procedure: as §1

Sequence of melanocortin-1 (MC1) receptor (Q01726 whole entry): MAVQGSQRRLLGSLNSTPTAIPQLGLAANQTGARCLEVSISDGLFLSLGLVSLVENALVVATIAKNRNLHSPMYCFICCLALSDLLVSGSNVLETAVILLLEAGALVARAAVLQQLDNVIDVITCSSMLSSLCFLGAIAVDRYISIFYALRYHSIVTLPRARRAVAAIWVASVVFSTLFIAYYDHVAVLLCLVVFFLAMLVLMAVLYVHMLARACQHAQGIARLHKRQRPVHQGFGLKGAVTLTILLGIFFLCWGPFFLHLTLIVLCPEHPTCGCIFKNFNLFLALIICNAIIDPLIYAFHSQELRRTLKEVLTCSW
Sequence of melanocortin-4 (MC4) receptor (P32245 whole entry): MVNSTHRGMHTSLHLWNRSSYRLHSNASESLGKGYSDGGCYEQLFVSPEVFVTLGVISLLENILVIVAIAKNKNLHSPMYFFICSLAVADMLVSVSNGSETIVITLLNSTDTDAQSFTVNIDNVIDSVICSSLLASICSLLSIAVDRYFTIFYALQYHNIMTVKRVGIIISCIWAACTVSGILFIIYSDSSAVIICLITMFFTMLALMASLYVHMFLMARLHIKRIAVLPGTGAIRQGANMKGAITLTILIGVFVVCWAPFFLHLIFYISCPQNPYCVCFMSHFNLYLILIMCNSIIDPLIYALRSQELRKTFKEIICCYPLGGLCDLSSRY
Sequence of melatonin (MT1) receptor (P48039 whole entry): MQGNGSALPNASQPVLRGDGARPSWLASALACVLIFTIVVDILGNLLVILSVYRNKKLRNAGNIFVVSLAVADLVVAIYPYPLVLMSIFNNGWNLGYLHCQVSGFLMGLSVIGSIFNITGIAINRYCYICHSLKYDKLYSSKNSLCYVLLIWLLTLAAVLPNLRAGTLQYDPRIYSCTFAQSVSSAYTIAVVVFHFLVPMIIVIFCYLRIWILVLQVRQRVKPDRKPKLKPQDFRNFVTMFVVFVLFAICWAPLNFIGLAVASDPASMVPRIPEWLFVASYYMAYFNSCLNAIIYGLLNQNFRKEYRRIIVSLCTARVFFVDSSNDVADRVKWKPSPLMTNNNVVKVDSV
Sequence of melanin concentrating hormone receptor MCH1 (Q99705 whole entry): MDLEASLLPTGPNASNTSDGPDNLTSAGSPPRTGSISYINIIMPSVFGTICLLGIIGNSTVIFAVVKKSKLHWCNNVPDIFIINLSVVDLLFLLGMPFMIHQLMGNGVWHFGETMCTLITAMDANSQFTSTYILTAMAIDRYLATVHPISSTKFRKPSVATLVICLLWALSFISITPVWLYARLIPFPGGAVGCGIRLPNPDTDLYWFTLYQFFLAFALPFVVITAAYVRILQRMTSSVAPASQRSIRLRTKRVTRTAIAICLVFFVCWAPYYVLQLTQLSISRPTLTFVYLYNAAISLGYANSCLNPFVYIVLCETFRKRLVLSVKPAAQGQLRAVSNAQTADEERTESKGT
Sequence of MC5 (P33032 whole entry): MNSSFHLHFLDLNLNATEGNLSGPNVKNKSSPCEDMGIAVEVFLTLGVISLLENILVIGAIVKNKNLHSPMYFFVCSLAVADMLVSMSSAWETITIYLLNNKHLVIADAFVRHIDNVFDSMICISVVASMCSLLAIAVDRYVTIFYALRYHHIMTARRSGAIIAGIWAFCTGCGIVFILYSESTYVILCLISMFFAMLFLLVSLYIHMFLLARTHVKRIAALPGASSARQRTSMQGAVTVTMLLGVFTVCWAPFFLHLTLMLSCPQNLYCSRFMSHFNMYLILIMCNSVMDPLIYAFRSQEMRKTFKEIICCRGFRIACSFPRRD
Sequence of melanin concentrating hormone receptor MCH2 (Q969V1 whole entry): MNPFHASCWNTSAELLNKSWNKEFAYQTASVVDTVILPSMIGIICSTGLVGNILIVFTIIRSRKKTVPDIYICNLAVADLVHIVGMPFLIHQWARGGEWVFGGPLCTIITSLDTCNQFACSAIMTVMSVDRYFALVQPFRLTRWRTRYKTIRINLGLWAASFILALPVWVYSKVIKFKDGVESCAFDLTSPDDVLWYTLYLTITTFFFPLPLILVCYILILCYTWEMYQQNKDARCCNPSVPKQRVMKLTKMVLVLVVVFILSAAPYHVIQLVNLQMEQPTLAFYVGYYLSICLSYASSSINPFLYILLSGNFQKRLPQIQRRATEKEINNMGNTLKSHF
Sequence of MC3 (P41968 whole entry): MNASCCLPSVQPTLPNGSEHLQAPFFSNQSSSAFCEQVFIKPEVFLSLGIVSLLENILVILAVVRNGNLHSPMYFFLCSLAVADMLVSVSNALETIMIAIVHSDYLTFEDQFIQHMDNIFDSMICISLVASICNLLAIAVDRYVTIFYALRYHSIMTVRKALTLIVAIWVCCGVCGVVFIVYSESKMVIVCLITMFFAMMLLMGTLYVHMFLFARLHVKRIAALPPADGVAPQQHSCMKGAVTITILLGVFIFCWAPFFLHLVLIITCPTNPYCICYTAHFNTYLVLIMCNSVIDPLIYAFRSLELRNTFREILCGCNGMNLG

| SMILES | inhibition at 10 µM (MC3) [%] | reduction of cell death [1] [%] | BDNF expression over the control (DMSO) (BDNF expression; 12-24 hours after treatment) | increase in BDNF expression (BDNF expression; after a 6 hour incubation period, DA001 pre-treatment 24 hrs, NMDA 20 μM) [fold] | inhibition at 10 µM [2] [%] | Ki ([3]; MC4) [µM] | IC50 ([3]; MC4, 8 concentrations, α-MSH binding) [µM] | inhibition at 10 µM ([3]; MC4, DA001 10 μM, duplicate, 125I-NDP-α-MSH, read-out: % inhibition of control specific binding) [%] | inhibition at 10 µM (MC5) [%] | Ki ([4]; MC1) [µM] | IC50 ([4]; MC1, 8 concentrations, α-MSH binding) [µM] | inhibition at 10 µM ([4]; MC1, DA001 10 μM, duplicate, 125I-NDP-α-MSH, read-out: % inhibition of control specific binding) [%] | reduction of cell death compared to DMSO control ([5]; DA001 10 μg/ml, LDH release) | inhibition at 10 µM [6] [%] | cytotoxicity / cell death (LDH release) (primary cortical neurons) | inhibition at 10 µM (melatonin (MT1) receptor) [%] | reduction of cell death compared to DA001 [5] | protection of cortical neurons against NMDA insult (cell death) ([5]; derivatives at 30 μM (DA026 at 10 μM), FIG. 12) |
| --- | --- | --- | --- | --- | --- | --- | --- | --- | --- | --- | --- | --- | --- | --- | --- | --- | --- | --- |
| C=C(C)[C@@H]1CC[C@]2(C(=O)O)CC[C@]3(C)C(CC[C@@H]4[C@@]5(C)CC[C@H](O[C@@H]6OC[C@H](O)[C@H](O)[C@H]6O[C@@H]6O[C@@H](C)[C@H](O)[C@@H](O)[C@H]6O)[C@@](C)(CO)[C@@H]5CC[C@]43C)[C@@H]12 (stereo partly drawn) [DA001, 3-O-[α-L-rhamnopyranosyl-(1→2)-α-L-arabinopyranosyl]-3,23-dihydroxy-20(29)-lupen-28-oic acid] | 12 | ~80 | 3-4 fold | 5 | -9 | 6.3 | 6.8 | 59 | 11 | 5.2 | 10 | 64 | more than 60% | -12 | No obvious cell death was observed at all doses examined; also recorded: did not induce cytotoxicity and cell death at all concentrations examined; also recorded: no significant toxicity was observed | 28 |  |  |
| C=C(C)[C@@H]1CC[C@]2(C(=O)O)CC[C@]3(C)C(CC[C@@H]4[C@@]5(C)CC[C@H](O)[C@@](C)(CO)[C@@H]5CC[C@]43C)[C@@H]12 (stereo partly shown) [DA002, 3,23-Dihydroxy-20(29)-lupen-28-oic acid] |  |  |  |  |  |  |  |  |  |  |  |  |  |  |  |  | reduced cell death prominently compared to DA001 |  |
| C=C(C)C1CCC2(C(N)=O)CCC3(C)C(CCC4C5(C)CCC(O)C(C)(CO)C5CCC43C)C12 (stereo not shown) [DA021, 3,23-Dihydroxy-20(29)-lupen-28-iminol] |  |  |  |  |  |  |  |  |  |  |  |  |  |  |  |  | reduced cell death prominently compared to DA001 | showed promising protective effect |
